Common to all, as to assay: NCI-60 one-dose screening
What all share (format): cell-based

One test deals with DU-145. Particulars: Homo sapiens, DU-145, Prostate Cancer, read-out: GI (%).
The subject of another test is T-47D. The note with it: Homo sapiens, T47D, Breast Cancer, read-out: GI (%).
The subject of the next test is NCI/ADR-RES. Particulars: Homo sapiens, Ovarian Cancer, read-out: GI (%).
The next test has as its system CAKI-1. The note with it: Homo sapiens, CAKI-1, Renal Cancer, read-out: GI (%).
The next test concerns HCT-15. Particulars: Homo sapiens, HCT-15, Colon Cancer, read-out: GI (%).
The next test deals with M14. The note with it: Homo sapiens, M14, Melanoma, read-out: GI (%).
The next test concerns NCI-H23. Particulars: Homo sapiens, NCI-H23, Non-Small Cell Lung Cancer, read-out: GI (%).
Another test deals with RXF 393. The note with it: Homo sapiens, RXF 393, Renal Cancer, read-out: GI (%).
For the next test, the system named is HT29. Particulars: Homo sapiens, HT-29, HT29, Colon Cancer, read-out: GI (%).
A further test concerns SK-MEL-28. The note with it: Homo sapiens, SK-MEL-28, Melanoma, read-out: GI (%).
In another test the test system is A549/ATCC. Particulars: Homo sapiens, Non-Small Cell Lung Cancer, read-out: GI (%).
A further test deals with IGROV1. Particulars: Homo sapiens, IGROV-1, IGROV1, Ovarian Cancer, read-out: GI (%).
For the next test, the system named is OVCAR-4. The note with it: Homo sapiens, OVCAR-4, 10 μM; OVCAR-4, Ovarian Cancer; read-out: GI (%).
The subject of a further test is UO-31. Particulars: Homo sapiens, UO-31, Renal Cancer, read-out: GI (%).
The test system of a further test is LOX IMVI. Particulars: Homo sapiens, Melanoma, read-out: GI (%).
The next test concerns MDA-MB-435. Particulars: Homo sapiens, MDA-MB-435, Melanoma, read-out: GI (%).
Another test deals with SF-268. The note with it: Homo sapiens, SF-268, CNS Cancer, read-out: GI (%).
Another test deals with ACHN. The note with it: Homo sapiens, Renal Cancer, read-out: GI (%).
The next test relates to SF-539. The note with it: Homo sapiens, SF-539, CNS Cancer, read-out: GI (%).
A further test concerns UACC-62. The note with it: Homo sapiens, UACC-62, Melanoma, read-out: GI (%).
A further test deals with MOLT-4. The note with it: Homo sapiens, MOLT-4, Leukemias, read-out: GI (%).
A further test relates to RPMI-8226. Particulars: Homo sapiens, RPMI-8226, Leukemias, read-out: GI (%).
In the next test the test system is SK-OV-3. Particulars: Homo sapiens, SK-OV-3, Ovarian Cancer, read-out: GI (%).
Another test has as its system 786-0. The note with it: Homo sapiens, 786-0, Renal Cancer, read-out: GI (%).

Experimental findings from publication PMC9948168, “Vanillin-Based Indolin-2-one Derivative Bearing a Pyridyl Moiety as a Promising Anti-Breast Cancer Agent via Anti-Estrogenic Activity” (ACS Omega, 2023) are described below.

For the compound `COc1cc(/C=C2/C(=O)Nc3cc(Cl)ccc32)ccc1O` [5c], the inhibition at 10 µM is -1.46% in the test with DU-145; 49.2% with T-47D; 11.5% with NCI/ADR-RES; 31.6% in the test with CAKI-1; 34.8% in the test on HCT-15; 21.2% with M14. The inhibition at 10 µM is 11.6% in the test with NCI-H23; 6.84% in the test on RXF 393; -0.03% in the test with HT29; 1.11% in the test on SK-MEL-28; 5.44% in the test with A549/ATCC; 36.6% with IGROV1. Also, the inhibition at 10 µM came to 25.4% in the test on OVCAR-4; 39.5% with UO-31; 22.7% in the test with LOX IMVI; 17.8% in the test on MDA-MB-435; 21.8% in the test on SF-268; 23.6% in the test on ACHN. Besides, the inhibition at 10 µM in the test on SF-539 is 39.8%; in the test with UACC-62, 41.5%; in the test with MOLT-4, 27.9%; in the test with RPMI-8226, 17.9%; in the test on SK-OV-3 it was 2.42%; with 786-0 it was 2.08%.

For `COc1cc(/C=C2/C(=O)Nc3ccc(Cl)cc32)ccc1OCc1ccccc1` [6f], the inhibition at 10 µM in the test with DU-145 was -11.6%; in the test with T-47D, 5.17%; with NCI/ADR-RES it was -2.56%; in the test on CAKI-1 it was 7.2%; in the test with HCT-15 it was 4.2%; in the test on M14, 0.98%. Besides, the inhibition at 10 µM with NCI-H23 is 1.55%; in the test on RXF 393, -11.6%; with HT29, -2.07%; in the test on SK-MEL-28 it was -4.79%; in the test with A549/ATCC it was -0.72%; with IGROV1, 1.82%. Besides, the inhibition at 10 µM was -6.85% with OVCAR-4; 22.4% in the test with UO-31; -3.97% in the test with LOX IMVI; -1.21% in the test on MDA-MB-435; 5.46% in the test on SF-268; 3.68% in the test with ACHN. The inhibition at 10 µM in the test with SF-539 was 2.76%; with UACC-62 it was 11.5%; in the test on MOLT-4, 3.2%; in the test on RPMI-8226, -5.21%; in the test on SK-OV-3, -9.53%; in the test with 786-0 it was -3.53%.

Turning to `COc1ccc(COc2ccc(/C=C3/C(=O)Nc4ccc(Cl)cc43)cc2OC)cc1` [6i], the inhibition at 10 µM with DU-145 is -12.1%; in the test with T-47D it was -5.11%; with NCI/ADR-RES, 3.06%; with CAKI-1 it was 15.4%; in the test on HCT-15 it was 3.59%; in the test with M14, 0.06%. For the same compound, the inhibition at 10 µM in the test with NCI-H23 was 3.99%; with RXF 393, -7.98%; in the test on HT29, -8.29%; in the test with SK-MEL-28, -6.77%; with A549/ATCC, -1.42%; in the test with IGROV1, 5.39%. Besides, the inhibition at 10 µM was -0.39% with OVCAR-4; 30.9% in the test on UO-31; 5.6% in the test on LOX IMVI; -5.33% with MDA-MB-435; -0.7% in the test with SF-268; 5.13% in the test with ACHN. Also, the inhibition at 10 µM is -1.4% in the test on SF-539; 17.9% with UACC-62; 4.03% with MOLT-4; 1.88% in the test on RPMI-8226; -8.16% with SK-OV-3; 0.79% with 786-0.

For `COc1cc(C=C2C(=O)Nc3ccccc32)ccc1O` (mixture of isomers) [5a], the inhibition at 10 µM was 11.2% in the test with DU-145; 31.6% in the test on T-47D; 8.73% in the test with NCI/ADR-RES; 36% in the test on CAKI-1; 25.7% in the test with HCT-15; 23.5% in the test with M14. For the same compound, the inhibition at 10 µM in the test with NCI-H23 was 16%; in the test on RXF 393, -6.54%; in the test with HT29 it was -1.86%; in the test with SK-MEL-28, 6.91%; with A549/ATCC it was 3.48%; in the test on IGROV1 it was 25.6%. In addition, the inhibition at 10 µM in the test with OVCAR-4 was 18.2%; with UO-31, 47.7%; in the test on LOX IMVI it was 28.6%; in the test on MDA-MB-435, 18.5%; in the test on SF-268 it was 14.7%; with ACHN, 22.8%. Further, the inhibition at 10 µM in the test on SF-539 is 22.6%; in the test on UACC-62, 34.6%; with MOLT-4, 10.4%; in the test with RPMI-8226, 10.8%; in the test on SK-OV-3 it was 5.29%; with 786-0, -0.72%.
